Tests used:
IL-6 = experiment: Inhibition of IL-6 expression in lung tumor cells (ELISA); assay type: cell-based, human; conditions: 5 μM; HCC-827
Description: Inhibition of IL-6 expression in lung tumor cells. HCC-827 cells were seeded in 6-well plates at a density of 4×10^5 cells/well. The following day, the media was replaced with fresh media containing low serum and treated the compound from Example 1 at a concentration of 5 μM. The cells were incubated at 37° C. and the supernatant was collected at 2, 4, 24, 48, and 72 hours post treatment. The supernatant was centrifuged at 2000 rpm for 3 minutes, transferred to fresh tubes and stored at −20 for further analysis. The supernatants were diluted six times with distilled water. The supernatants were then subjected to ELISA analysis for expression of Interleukin-6 (IL-6) as per the manufacturer's protocol (Hs Human IL-6 kit, R&D Systems, Minneapolis, Minn. USA, Cat #HS600B). The amount of secreted IL-6 was calculated and quantified based on the standards and plotted as bar graphs using Microsoft excel. […] Stat3 expresses IL-6 and IL-6 stimulates Stat3 activation, resulting in angiogenesis, cell cycling and cell survival.

[1] = system: SUM149 inflammatory breast tumor cells; experiment: Anchorage-independent growth in soft agar, SUM149; assay type: cell-based; conditions: 28 days
Description: Assay for anchorage-independent growth in soft agar Cells (5×10^5) were suspended in 1× DMEM/HEPES, 10% heat-inactivated FBS, 0.13% bicarbonate, and 0.33% BBL agar. The cells were plated on 1% base agar plates (60 mm) containing 1× DMEM/HEPES, 10% heat-inactivated FBS, and 1% BBL agar. Fresh serum-containing medium was fed to the cells on 3-day intervals. The dishes were then incubated at 37° C. with 5% CO2 for 28 days. The colonies that grew in soft agar were photographed and counted. Data are expressed as the number of colonies formed per plate±S.E.M. and three plates were counted per cell line.

Akt = experiment: pAkt levels in BT20 cells; assay type: cell-based; conditions: 5 μM; BT20, constitutively activated Akt
VEGF = experiment: Inhibition of VEGF expression in lung tumor cells (ELISA); assay type: cell-based, human; conditions: single dose of 5 μM; HCC-827
Description: Inhibition of VEGF expression in lung tumor cells. HCC-827 were seeded in 6-well plates at a density of 4×10^5 cells. The following day, the media was replaced with fresh media containing low serum and treated either the compound from example 16 at a concentration of 5 μM. The cells were incubated at 37° C. and the supernatant was collected at 2, 4, 24, 48 and 72 hours post treatment. The supernatant was centrifuged at 2000 rpm for 3 minutes, transferred to fresh tubes and stored at −20 for further analysis. The supernatants were diluted six times with distilled water.

normal cells = experiment: Effect on normal cells in the cell growth assay; assay type: cell-based
Description: Lung Tumor Cell Viability Assay: H1819, H1299 and H827 lung tumor cells were seeded in 6-well plates at a density of 6×10^4, 4×10^4 and 5×10^4 cells/well, respectively. Prodrugs were dissolved in DMSO to make a stock concentration of 500 μM. The following day the cells were treated either with DMSO alone or with 0.25 μM, 0.5 μM, 1.0 μM, 2.5 μM and 5.0 μM of the compounds from Example 1, Example 16, and Example 22. Seventy two h after treatment with the drug the cells were subjected to cell viability assay using trypan blue. […] Cells were plated and after 24 hr were treated with the compound of Example 16 in DMSO. After 72 hr, cells were counted. Note that vertical axes are different for each plot.

| SMILES | time for which IL-6 expression is inhibited (IL-6) | colony formation in soft agar [1] | pAkt levels (Akt) | time up to which expression and excretion of VEGF is inhibited (VEGF) | effect on normal cells compared to vehicle DMSO (normal cells) |
| --- | --- | --- | --- | --- | --- |
| C/C(=C\C(=O)N[C@H]1CCc2cccc3c2N(C1=O)[C@H](C(=O)N[C@H](C)CCC(N)=O)C3)c1ccc(C(F)(F)P(=O)(OCOC(=O)C(C)(C)C)OCOC(=O)C(C)(C)C)cc1 [Example 1, (2E)-3-[4-[[bis[(2,2-dimethyl-1-oxopropoxy)methoxy]phosphinyl]difluoromethyl]phenyl]-but-2-enoyl-Haic-(R)-4-aminopentamide] | 48 h | inhibition of colony formation | no effect |  |  |
| CCCC[C@H](NC(=O)/C=C(\C)c1ccc(C(F)(F)P(=O)(OCOC(=O)C(C)(C)C)OCOC(=O)C(C)(C)C)cc1)C(=O)N1C[C@H]2CC2[C@H]1C(=O)N[C@@H](CCC(N)=O)[C@@H](C)OCc1ccccc1 (stereo partly drawn) [Example 16, (2E)-3-[4-[[bis[(2,2-dimethyl-1-oxopropoxy)methoxy]phosphinyl]difluoromethyl]phenyl]-but-2-enoyl-norleucinyl-(2S,3R,4S)-methanoprolinyl-(4S,5R)-4-amino-5-benzyloxyhexamide] |  |  |  | up to 24 hr | negligible effects |

Source: patent US8841257B2, “Inhibitors of STAT3 and uses thereof” (Board of Regents, The University of Texas System, priority 2009, dated 2014)
